Source: article PMC7139405, “Real-Time 3D Imaging and Inhibition Analysis of Various Amyloid Aggregations Using Quantum Dots” (International Journal of Molecular Sciences, 2020)

Assays:
Amyloid β (Aβ42) = target: T1, Amyloid β (Aβ42) (Homo sapiens, UniProt P05067); assay: aggregation inhibition of isolated peptide, quantum-dot fluorescence imaging (MSHTS); format: biochemical
T1 construct: gene APP
From the text: aggregation inhibition of isolated peptide, quantum-dot fluorescence imaging (MSHTS) on Amyloid β (Aβ42) | RA inhibited the aggregation of Aβ and α-synuclein proteins in vitro in a dose-dependent manner

α-synuclein = target: T2, α-synuclein (Homo sapiens, UniProt P37840); assay: aggregation inhibition of purified protein, quantum-dot fluorescence imaging (MSHTS); format: biochemical
T2 construct: gene SNCA

T1 sequence (P05067 672-713): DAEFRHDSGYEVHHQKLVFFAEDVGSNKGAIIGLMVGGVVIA

Which results are given for O=C(/C=C/c1ccc(O)c(O)c1)O[C@H](Cc1ccc(O)c(O)c1)C(=O)O [RA, rosmarinic acid]?
EC50 (Amyloid β (Aβ42)): 20.6 µM; EC50 (α-synuclein): 2100 nM
